# Tests used:
# Format in all cases: cell-based, human
# HCT116 cells [1] = experiment: JC-1 staining, mitochondrial membrane potential by flow cytometry; conditions: control HCT116 cells, ADR treatment
# Method: To further define the nature of this cell death response the inventors used another assay, namely flow cytometric detection of cells stained with JC-1. The JC-1-staining identifies cell death events as a result of loss of mitochondria membrane potential (ΔΨm).
# Cells cycle analysis was performed by DNA content quantification. The cells were fixed with 70% ethanol and stained with propidium iodide (50 μg/ml) staining. The stained cells were analyzed by FACScalibur (BD Bioscience). For the BrdU incorporation assay and mitochondrial membrane potential detection, the BrdU Flow Kit and JC-1 staining kit (both from BD Bioscience) were used, respectively, following the instruction manual. Stained cells were analyzed by FACScalibur (BD Bioscience) and quantified by using CellQuest software (BD Bioscience).
# HCT116 cells [2] = experiment: Cytokinesis blocked micronucleus (CBMN) assay; conditions: RPS27L-depleted HCT116 cells, ADR (1 μM) 24 h
# Method: In order to examine DNA damage directly, the comet assay was used next. The comet assay is a single cell gel electrophoresis assay in which damaged DNA migrates to form a “comet tail” that is proportional to the amount of DNA damage (Collins, A. R. (2004) “The comet assay for DNA damage and repair: principles, applications, and limitations” Mol Biotechnol, vol. 26, p. 249-261). Cells were incubated with ADR for 24 h and were harvested and processed for the comet assay. […] We then investigated whether elevated DNA damage has caused chromosome instability. […]
# After treatment with ADR, cells were incubated with cytochalasin B (Sigma, 5 μg/ml) for an additional 22 h. […] Fixed cells were dropped onto clean slides and stained with 3 μg/ml Acridine Orange (which differentially stains cytoplasm and nucleus) (Hande, M. P., et al. (1996) “Induction and persistence of cytogenetic damage in mouse splenocytes following whole-body X-irradiation analysed by fluorescence in situ hybridization. II. Micronuclei.” Int J Radiat Biol.; vol. 70(4), p. 375-83; Hande, M. P., et al. (1997) “Induction and persistence of cytogenetic damage in mouse splenocytes following whole-body X-irradiation analysed by fluorescence in situ hybridization. III. Chromosome malsegregation/aneuploidy” Mutagenesis, vol. […] One thousand binucleated cells were scored for each sample.
# RPS27L protein = experiment: Western blot of RPS27L protein levels in HCT116 cells; conditions: ADR (1 μM), 5-FU (375 μM), nutlin-3 (10 μM)
# Method: To investigate whether the p53-induced increase in RPS27L mRNA also gives rise to the increased protein levels, immunoblot analysis of p53 wild-type and p53 null HCT116 cells treated with ADR, 5-FU or nutlin-3, a small molecule MDM2 antagonist that directly activates p53 (Vassilev, L. T., Vu, B. T., et al. (2004) “In vivo activation of the p53 pathway by small-molecule antagonists of MDM2” Science, vol. 303, p. 844-848) was performed. […] To extend this observations to other cell lines and to other p53 stimuli, U2OS (human osteosarcoma cell line) and SH-SY5Y (human neuroblastoma cell line) cells (p53 wild type) as well as Saos-2 cells (human osteosarcoma cell line, p53-deficient) were treated with ADR, etoposide phosphate (VP16®) and 5-FU (FIG. 2B). […] Obviously, 5-FU treatment activates a posttranslational mechanism that causes RPS27L protein downregulation in spite of the increased mRNA expression.
# (§1) Cells were harvested and lysed with RIPA buffer (50 mM Tris-HCl, pH7.4, 1 mM EDTA, 150 mM NaCl, 1% Nonidet P-40, 0.5% sodium deoxycholate and proteinase inhibitors). The lysates were clarified by centrifugation at 16,000×g for 15 minutes at 4° C. Protein concentrations were determined with the Bradford Protein Assay Kit (Bio-Rad). 20-50 μg protein samples were separated by SDS-PAGE, transferred onto an Immobilon membrane (Millipore) and blotted with antibodies. Anti-p53 and anti-p21 antibodies were from Santa Cruz; anti-MDM2 and anti-Puma antibodies were from Merck. The rabbit polyconal antibody to RPS27L was raised against a 14 amino acid peptide from human RPS27L (SEQ ID NO: 2: LHPSLEEEKKKHKK).
# HCT116 cells [3] = experiment: Alkaline single cell gel electrophoresis (comet) assay; conditions: RPS27L-depleted versus control HCT116 cells, ADR 24 h
# Method: In order to examine DNA damage directly, the comet assay was used next. […] Cells were incubated with ADR for 24 h and were harvested and processed for the comet assay.
# The treated cells were subjected to a single cell gel electrophoresis (comet) assay as described earlier (Poonepalli, A., Balakrishnan, L., et al. (2005), supra) and stained with SYBR green dye. The tail moment of the comets was generated using the Metasystems (Germany) analysis software ‘Comet imager version 1.2’. Fifty randomly chosen comets were analyzed per sample. The extent of DNA damage observed was expressed as tail moment, which corresponded to the fraction of the DNA in the tail of the comet.
# [4] = tested on: p53 and its downstream targets p21, puma and MDM2; experiment: Immunoblot of p53 and its targets in control and RPS27L-depleted HCT116 cells; conditions: RPS27L-depleted versus control HCT116 cells
# Method: As RPS27L depletion sensitizes only p53 wild-type cells to DNA damage, the inventors next assessed the effect of RPS27L loss on p53 signaling pathway. The effects of RPS27L depletion on p53 and its downstream targets p21, puma and MDM2 was examined by immunoblot analysis. […] By contrast, p53-dependent activation of Puma and MDM2 were not decreased upon RPS27L loss.
# as §1
smiles,measurement,setting,value
"COc1cccc2c1C(=O)c1c(O)c3c(c(O)c1C2=O)C[C@@](O)(C(=O)CO)C[C@@H]3O[C@H]1C[C@H](N)[C@H](O)[C@H](C)O1 [ADR, adriamycin]",percentage of cells with lower membrane potential (ΔΨm),HCT116 cells [1],13.5%
same,micronucleus frequency,HCT116 cells [2],increased micronucleus frequency
same,RPS27L protein level,RPS27L protein,increased RPS27L protein levels
same,DNA damage (comet tail moment),HCT116 cells [3],significantly enhanced
same,p53-dependent activation of Puma and MDM2,[4]; ADR (1 μM),not decreased
same,effect of RPS27L depletion on ADR-induced p53 activation,[4]; ADR (1 μM) 24 and 48 hours,no significant effect
same,p21 accumulation in response to ADR,[4]; ADR (1 μM) 24 and 48 hours,significant reduced
